Results reported in patent US20220380368A1, “SPIROCYCLIC ANDROGEN RECEPTOR PROTEIN DEGRADERS” (THE REGENTS OF THE UNIVERSITY OF MICHIGAN, priority 2019, published 2022).
Substitutions are numbered along the chain they refer to. Like-named read-outs stand apart in the source and are kept apart here.

Assays:
AR protein [1] = test: AR degradation in MDA-MB-453 cells (Western blotting); format: cell-based; conditions: 24 hr treatment
Method: (§1) The appropriate cell line, e.g., prostate cancer LNCaP, Vcap, or 22RV1 cell line, was treated with Compounds of the Disclosure as indicated. The treated cells were lysed with RIPA buffer. The AR level in the cell lysates was examined by western blotting and a specific AR antibody (ab194196, Abcam, Cambridge, Mass. 02139) with concentration of 1:20,000. GAPDH was used as a loading control.
(§2) Bands were quantified with ImageJ software. The relative numbers of each band obtained from normalization with its corresponding GAPDH level were compared with Prism 8 software. The DC50 values were produced from Prism 8, and the DC90 values were calculated with an equation=Bottom+(Top−Bottom)/(1+10^((Log EC50−X)*HillSlope) based on DC50 and Hillslope values.

AR protein [2] = biological target: T1, AR protein (Homo sapiens, UniProt P10275); test: Western blotting analysis of AR protein levels in VCaP cells, band quantification, DC50/DC90; format: cell-based; conditions: prostate cancer Vcap cells, 24 h treatment; for DC90: calculated from DC50 and Hillslope
T1 construct: endogenous in cells; host or cells: VCaP
T1 sequence (P10275 1-920): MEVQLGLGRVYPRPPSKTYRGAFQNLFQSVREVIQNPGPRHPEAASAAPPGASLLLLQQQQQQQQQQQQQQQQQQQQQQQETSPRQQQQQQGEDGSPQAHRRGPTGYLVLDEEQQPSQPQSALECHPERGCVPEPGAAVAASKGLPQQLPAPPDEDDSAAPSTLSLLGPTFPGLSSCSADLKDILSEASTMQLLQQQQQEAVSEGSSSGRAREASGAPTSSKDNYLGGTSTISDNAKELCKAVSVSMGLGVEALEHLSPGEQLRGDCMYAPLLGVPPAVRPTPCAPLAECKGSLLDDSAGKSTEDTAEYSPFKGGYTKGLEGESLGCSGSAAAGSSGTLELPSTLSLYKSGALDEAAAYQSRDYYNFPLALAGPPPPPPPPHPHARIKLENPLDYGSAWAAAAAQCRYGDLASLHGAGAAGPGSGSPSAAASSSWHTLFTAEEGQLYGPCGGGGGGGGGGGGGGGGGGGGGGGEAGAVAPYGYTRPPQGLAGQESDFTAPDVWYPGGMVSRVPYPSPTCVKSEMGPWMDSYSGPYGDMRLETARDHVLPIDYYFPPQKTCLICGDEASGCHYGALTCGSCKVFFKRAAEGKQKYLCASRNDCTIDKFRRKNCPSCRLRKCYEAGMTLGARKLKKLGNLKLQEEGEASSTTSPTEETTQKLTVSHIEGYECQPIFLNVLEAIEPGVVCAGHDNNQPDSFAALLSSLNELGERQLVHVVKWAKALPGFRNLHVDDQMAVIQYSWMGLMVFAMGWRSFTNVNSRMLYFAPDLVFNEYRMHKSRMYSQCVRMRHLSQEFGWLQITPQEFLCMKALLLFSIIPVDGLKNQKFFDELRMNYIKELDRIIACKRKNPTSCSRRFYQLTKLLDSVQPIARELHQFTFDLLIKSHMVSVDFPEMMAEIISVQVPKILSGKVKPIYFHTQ
How it was run: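 VCaP cells treated with compounds, lysed in RIPA and probed for AR by Western blot with GAPDH loading control. Band intensities normalised to GAPDH; DC50 from curve fit, DC90 calculated from DC50 and Hill slope via four-parameter equation.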

[3] = Mouse PK studies after oral and IV dosing; format: in vivo
Method: The pharmacokinetics of representative Compounds of the Disclosure were determined after oral and IV dosing at the concentrations indicated in mouse (Table 7). […] The vehicles used in these studies are either (i) 10% PEG400+90% PBS (adjusted to pH to 8.0 by 0.5 N NaOH); or (ii) 100% PEG200.

AR protein [4] = biological target: T2, AR protein (Homo sapiens, UniProt P10275, T878A); test: Western blotting analysis of AR protein levels in LNCaP cells, band quantification, DC50/DC90; format: cell-based; conditions: prostate cancer LNCaP cells, 24 h treatment; for DC90: calculated from DC50 and Hillslope
T2 construct: endogenous in cells; host or cells: LNCaP
T2 sequence (P10275 1-920 T878A): T1 sequence (P10275 1-920) with T878A
Method: as §1, §2

AR protein [5] = test: Western blotting analysis of AR protein levels in 22RV1 cells, band quantification, DC50/DC90; format: cell-based; conditions: prostate cancer 22RV1 cells, 24 h treatment; for DC90: calculated from DC50 and Hillslope
Method: as §1, §2

[6] = tested on: AR-amplified prostate cancer cells; conditions: cited from earlier work

With `N#Cc1ccc(OC2CC3(C2)CN(C(=O)c2ccc(C4CCN(CC5CCN(c6ccc7c(c6)C(=O)N(C6CCC(=O)NC6=O)C7=O)CC5)CC4)cc2)C3)cc1Cl` (centres unmarked) [compound 480] the “degradation at 10 nM” value (AR protein [1]) was “B (>50% degradation but <90% (24 hr treatment))” and the “degradation at 100 nM” value (AR protein [1]) was “A (>90% degradation (24 hr treatment))”.

With `C[C@H]1CC2(CCN(c3ccc(C(=O)N4CCC(N5Cc6cc7c(cc6C5)C(=O)N(C5CCC(=O)NC5=O)C7=O)CC4)cc3)CC2)CN1c1ccc(C#N)c(Cl)c1` (stereo partly drawn) [Cpd. No. 307, 2-chloro-4-((3S)-8-(4-(4-(6-(2,6-dioxopiperidin-3-yl)-5,7-dioxo-3,5,6,7-tetrahydropyrrolo[3,4-f]isoindol-2(1H)-yl)piperidine-1-carbonyl)phenyl)-3-methyl-2,8-diazaspiro[4.5]decan-2-yl)benzonitrile] the DC90 (AR protein [2]) was 0.199 nM, the DC50 (AR protein [2]; read-out: DC50) was 0.046 nM and the F ([3]; PO 5 mg/kg vs IV 2 mg/kg) was 67%. The AUC(0-t) ([3]; in vivo, iv, 2 mg/kg, IV, dose 2 mg/kg, read-out: IV AUC(0 − t)) was 50500 ng·h/mL, the clearance ([3]; in vivo, iv, 2 mg/kg, IV, dose 2 mg/kg, read-out: IV Cl (converted)) was 0.667 mL/min/kg and the half-life ([3]; in vivo, iv, 2 mg/kg, IV, dose 2 mg/kg, read-out: IV T1/2 (converted)) was 4.34 h. For the same compound, the Vd ([3]; in vivo, iv, 2 mg/kg, IV, dose 2 mg/kg, read-out: IV VSS) was 0.23 L/kg, the Cmax ([3]; in vivo, po, 5 mg/kg) was 9120 ng/mL and the Tmax ([3]; in vivo, po, 5 mg/kg) was 2 h. For the same compound, the AUC(0-t) ([3]; in vivo, po, 5 mg/kg, PO, dose 5 mg/kg, read-out: PO AUC(0 − t)) was 85200 ng·h/mL, the half-life ([3]; in vivo, po, 5 mg/kg, PO, dose 5 mg/kg, read-out: PO T1/2 (converted)) was 4.4 h and the DC90 (AR protein [4]) was 0.11 nM. It also gave a DC50 (AR protein [4]; read-out: DC50) of 0.082 nM, a DC50 (AR protein [5]) of 0.9 nM and a DC90 (AR protein [5]) of 3.1 nM.

For `Cc1ncsc1-c1ccc(CNC(=O)C2C[C@@H](O)CN2C(=O)[C@@H](NC(=O)COCCCCOc2ccc(-c3ccc(N4C(=S)N(c5ccc(C#N)c(C(F)(F)F)c5)C(=O)C4(C)C)cc3)cc2)C(C)(C)C)cc1` (stereo partly drawn) [ARCC-4, (4R)-1-((S)-2-(2-(4-((4′-(3-(4-cyano-3-(trifluoromethyl)phenyl)-5,5-dimethyl-4-oxo-2-thioxoimidazolidin-1-yl)-[1,1′-biphenyl]-4-yl)oxy)butoxy)acetamido)-3,3-dimethylbutanoyl)-4-hydroxy-N-(4-(4-methylthiazol-5-yl)benzyl)pyrrolidine-2-carboxamide], the “inducing apoptosis and inhibiting proliferation, compared with enzalutamide” value [6] is given as “more potent and effective than enzalutamide”.

In the case of `N#Cc1ccc(N2CC3(CN(C(=O)c4ccc(C5CCN(CC6CCN(c7ccc8c(c7)C(=O)N(C7CCC(=O)NC7=O)C8=O)CC6)CC5)cc4)C3)C2)cc1Cl` (centres unmarked) [compound 481], the “degradation at 10 nM” value (AR protein [1]) is reported as “B (>50% degradation but <90% (24 hr treatment))” and the “degradation at 100 nM” value (AR protein [1]) is reported as “A (>90% degradation (24 hr treatment))”.

In the case of `C[C@H]1CC2(CCN(c3ccc(C(=O)N4CCN(C5CN(c6ccc7c(c6)C(=O)N(C6CCC(=O)NC6=O)C7=O)C5)CC4)cc3)CC2)CN1c1ccc(C#N)c(Cl)c1` (stereo partly drawn) [Cpd. No. 293, 2-chloro-4-((3S)-8-(4-(4-(1-(2-(2,6-dioxopiperidin-3-yl)-1,3-dioxoisoindolin-5-yl)azetidin-3-yl)piperazine-1-carbonyl)phenyl)-3-methyl-2,8-diazaspiro[4.5]decan-2-yl)benzonitrile], the DC50 (AR protein [2]) is reported as 0.031 nM, the DC90 (AR protein [2]) is reported as 0.41 nM and the DC50 (AR protein [4]) is reported as 0.3 nM. For the same compound, the DC90 (AR protein [4]) was 0.33 nM, the DC50 (AR protein [5]) was 0.14 nM and the DC90 (AR protein [5]) was 0.23 nM.
